Results taken from ChEMBL document CHEMBL1155107, “Oxidative transformation of 2-acetylaminofluorene by a chemical model for cytochrome P450: A water-insoluble porphyrin and tert-butyl hydroperoxide” (Bioorg Med Chem, 2008).

System: Salmonella typhimurium
Assay: Toxicity in Salmonella Typhimurium TA1538 assessed as induction of mutagenicity using cytochrome P450 chemical model after 44 hrs by Ames test
Assay type: organism-based
Details: salmonella enterica subsp. enterica serovar typhimurium

For `CC(=O)Nc1ccc2c(c1)Cc1ccccc1-2` [2-ACETYLAMINOFLUORENE], which Activity is on record?
Its Activity is “Dose-dependent effect”.
